What all share (experiment): relative viability (nuclei count vs DMSO), 5 days (fraction); higher = more cells survive
Compound in the experiment “Carfilzomib + Decitabine”: CC(C)C[C@H](NC(=O)[C@H](CCc1ccccc1)NC(=O)CN1CCOCC1)C(=O)N[C@@H](Cc1ccccc1)C(=O)N[C@@H](CC(C)C)C(=O)[C@@]1(C)CO1 [Carfilzomib] + Nc1ncn([C@H]2C[C@H](O)[C@@H](CO)O2)c(=O)n1 [Decitabine] (partner 2 µM)
The procedure, abridged:
(§1)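 Lung cancer cell lines, seeded in 1536-well plates, were treated the following day by pin tool with a single drug or with five library-drug doses (not always all listed) in √10 steps on top of a fixed anchor-drug dose. Cells were fixed and nuclei stained in one step after 5 days, and nuclei were counted. Relative viability is the nuclei count for treated wells divided by that for vehicle wells, reported as medians of duplicate plates.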

Compound in the experiment “Carfilzomib + Pemetrexed”: CC(C)C[C@H](NC(=O)[C@H](CCc1ccccc1)NC(=O)CN1CCOCC1)C(=O)N[C@@H](Cc1ccccc1)C(=O)N[C@@H](CC(C)C)C(=O)[C@@]1(C)CO1 [Carfilzomib] + Nc1nc2[nH]cc(CCc3ccc(C(=O)N[C@@H](CCC(=O)O)C(=O)O)cc3)c2c(=O)[nH]1 [Pemetrexed] (partner 0.2 µM)
The method, boiled down:
as §1

Compound in the experiment “Olaparib + Trametinib”: O=C(c1cc(Cc2n[nH]c(=O)c3ccccc23)ccc1F)N1CCN(C(=O)C2CC2)CC1 [Olaparib] + CC(=O)Nc1cccc(-n2c(=O)n(C3CC3)c(=O)c3c(Nc4ccc(I)cc4F)n(C)c(=O)c(C)c32)c1 [Trametinib] (partner 0.02 µM)
The method, boiled down: as §1

Compound in the experiment “Crizotinib + Lapatinib”: C[C@@H](Oc1cc(-c2cnn(C3CCNCC3)c2)cnc1N)c1c(Cl)ccc(F)c1Cl [Crizotinib] + CS(=O)(=O)CCNCc1ccc(-c2ccc3ncnc(Nc4ccc(OCc5cccc(F)c5)c(Cl)c4)c3c2)o1 [Lapatinib] (partner 2 µM)
The procedure, abridged: as §1

For NCI-H1793, the relative viability came to 0.494 with Carfilzomib + Decitabine (first compound 0.001 µM); 0.61 in the experiment with Carfilzomib + Decitabine (first compound 0.003162 µM); 0.531 with Carfilzomib + Decitabine (first compound 0.01 µM); 0.562 with Carfilzomib + Decitabine (first compound 0.03162 µM); 0.194 with Carfilzomib + Decitabine (first compound 0.1 µM); 0.58 with Carfilzomib + Pemetrexed (first compound 0.001 µM). For the same cell line, the relative viability in the experiment with Carfilzomib + Pemetrexed (first compound 0.003162 µM) stood at 1.13; in the experiment with Carfilzomib + Pemetrexed (first compound 0.01 µM), 0.861; in the experiment with Carfilzomib + Pemetrexed (first compound 0.03162 µM), 0.7; with Carfilzomib + Pemetrexed (first compound 0.1 µM), 0.336; with Olaparib + Trametinib (first compound 0.08 µM), 0.522; with Olaparib + Trametinib (first compound 0.253 µM), 0.427. Further, the relative viability was found to be 0.395 with Olaparib + Trametinib (first compound 2.53 µM); 0.476 with Olaparib + Trametinib (first compound 8 µM); 0.68 with Crizotinib + Lapatinib (first compound 0.01 µM); 0.737 with Crizotinib + Lapatinib (first compound 0.03162 µM); 0.749 with Crizotinib + Lapatinib (first compound 0.1 µM); 0.802 in the experiment with Crizotinib + Lapatinib (first compound 1 µM).

Values taken from the supplement of paper PMC10307832.
